# Data taken from patent publication US20210395679A1, “IN VITRO CELL CULTURE SYSTEM FOR PRODUCING HEPATOCYTE-LIKE CELLS AND USES THEREOF” (CHILDREN'S HOSPITAL MEDICAL CENTER, priority 2018, published 2021).
# Target: T1, MRP4 (Homo sapiens, UniProt O15439)
# T1 sequence (O15439 1-1325): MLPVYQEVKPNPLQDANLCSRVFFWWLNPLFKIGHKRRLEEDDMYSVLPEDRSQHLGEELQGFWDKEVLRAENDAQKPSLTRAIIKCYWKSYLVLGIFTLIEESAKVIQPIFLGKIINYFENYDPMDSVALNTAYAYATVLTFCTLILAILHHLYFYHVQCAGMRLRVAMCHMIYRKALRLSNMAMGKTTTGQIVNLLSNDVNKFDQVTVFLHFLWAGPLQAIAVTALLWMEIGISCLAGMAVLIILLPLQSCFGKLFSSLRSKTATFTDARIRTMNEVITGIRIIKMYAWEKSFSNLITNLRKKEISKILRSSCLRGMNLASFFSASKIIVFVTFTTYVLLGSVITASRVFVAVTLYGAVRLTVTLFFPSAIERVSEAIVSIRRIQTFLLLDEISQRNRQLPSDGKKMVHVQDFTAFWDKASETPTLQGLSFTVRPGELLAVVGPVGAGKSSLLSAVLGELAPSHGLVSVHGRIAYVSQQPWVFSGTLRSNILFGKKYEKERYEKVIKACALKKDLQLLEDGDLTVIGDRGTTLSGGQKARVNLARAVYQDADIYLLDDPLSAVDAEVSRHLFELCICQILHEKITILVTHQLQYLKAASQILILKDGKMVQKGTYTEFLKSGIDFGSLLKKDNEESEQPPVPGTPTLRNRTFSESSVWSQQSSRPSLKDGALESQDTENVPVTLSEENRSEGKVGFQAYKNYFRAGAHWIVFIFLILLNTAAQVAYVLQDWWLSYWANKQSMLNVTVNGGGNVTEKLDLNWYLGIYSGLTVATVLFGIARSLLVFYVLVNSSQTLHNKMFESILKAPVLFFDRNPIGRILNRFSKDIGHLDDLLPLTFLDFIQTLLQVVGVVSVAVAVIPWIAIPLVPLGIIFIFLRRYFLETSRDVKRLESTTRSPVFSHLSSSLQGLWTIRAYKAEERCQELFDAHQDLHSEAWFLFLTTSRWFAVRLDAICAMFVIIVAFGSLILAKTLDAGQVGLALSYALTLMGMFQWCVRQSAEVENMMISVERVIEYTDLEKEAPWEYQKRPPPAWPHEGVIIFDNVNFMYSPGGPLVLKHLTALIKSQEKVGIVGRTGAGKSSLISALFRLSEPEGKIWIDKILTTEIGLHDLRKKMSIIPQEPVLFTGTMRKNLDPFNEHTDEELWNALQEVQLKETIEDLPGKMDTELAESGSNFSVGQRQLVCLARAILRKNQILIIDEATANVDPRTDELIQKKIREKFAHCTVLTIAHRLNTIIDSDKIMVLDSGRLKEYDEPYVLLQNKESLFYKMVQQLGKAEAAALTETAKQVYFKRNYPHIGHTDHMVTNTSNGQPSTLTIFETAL
# Assay: Wash-out assay of intracellular-to-basolateral D4-TCA export with or without MRP4 inhibitor
# Details: normal i-Hep, 1 h D4-TCA 10 μM in the lower chamber, fresh medium with or without inhibitor
smiles,measurement,value
Cn1c(CSc2nc3ccccc3s2)n[nH]c1=S [Ceefourin1],basolateral export of D4-TCA towards the lower chamber,did not alter the basolateral export
